Reference: PubChem BioAssay (NCI)
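The compound was tested at five concentrations on cells cultured in 96-well plates, with a 48-hour exposure period. The concentration for 50% growth inhibition is given as GI50. TGI marks complete inhibition of growth.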

Columns and labels:
Assay in all cases: NCI tumour cell line growth inhibition, 48 h
DLD-1 colon = tested on: DLD-1 colon
DMS 273 small cell lung = tested on: DMS 273 small cell lung
HCT-116 colon = tested on: HCT-116 colon
HOP-62 NSCLC = tested on: HOP-62 NSCLC
LXFL 529 NSCLC = tested on: LXFL 529 NSCLC
SF-268 CNS = tested on: SF-268 CNS
SN12C renal = tested on: SN12C renal
TK-10 renal = tested on: TK-10 renal
SR leukemia = tested on: SR leukemia
DU-145 prostate = tested on: DU-145 prostate

| Structure (SMILES) | TGI (DLD-1 colon) [µM] | TGI (DMS 273 small cell lung) [µM] | TGI (HCT-116 colon) [µM] | TGI (HOP-62 NSCLC) [µM] | TGI (LXFL 529 NSCLC) [µM] | TGI (SF-268 CNS) [µM] | TGI (SN12C renal) [µM] | TGI (TK-10 renal) [µM] | TGI (SR leukemia) [µM] | GI50 (DLD-1 colon) [µM] | GI50 (DMS 273 small cell lung) [µM] | GI50 (HCT-116 colon) [µM] | GI50 (HOP-62 NSCLC) [µM] | GI50 (LXFL 529 NSCLC) [µM] | GI50 (SF-268 CNS) [µM] | GI50 (SN12C renal) [µM] | GI50 (TK-10 renal) [µM] | TGI (DU-145 prostate) [µM] |
| --- | --- | --- | --- | --- | --- | --- | --- | --- | --- | --- | --- | --- | --- | --- | --- | --- | --- | --- |
| CC(NC(=O)C(=O)N/N=C1\C[C@@H](c2ccccc2)Nc2ccccc21)c1ccccc1 (stereo partly specified) | > 100 | > 100 | > 100 | > 100 | > 100 | > 100 | > 100 | > 100 | – | – | – | – | – | – | – | – | – | – |
| Cn1c(=O)c(C(=O)NC(=O)NCCCCCOC(=O)CCCCCCCCCCC(=O)OCCCCCNC(=O)NC(=O)c2cn(Cc3ccccc3)c(=O)n(C)c2=O)cn(Cc2ccccc2)c1=O | > 100 | > 100 | > 100 | > 100 | > 100 | > 100 | > 100 | > 100 | – | – | – | – | – | – | – | – | – | – |
| CC1(C(=O)O)CCOc2ccccc21 (stereo unspecified) | > 100 | – | > 100 | > 100 | > 100 | > 100 | > 100 | > 100 | > 100 | – | – | – | – | – | – | – | – | – |
| COC12CCC(C(C(=O)c3ccccc3)=C1C(=O)c1ccccc1)C(O)C2 (stereo unspecified) | > 100 | > 100 | > 100 | > 100 | > 100 | > 100 | > 100 | > 100 | > 100 | – | – | – | – | – | – | – | – | – |
| Cc1c(-c2nnc(-c3ccccc3)o2)c(=O)n(-c2ccccc2)n1C | > 100 | > 100 | > 100 | > 100 | > 100 | > 100 | > 100 | > 100 | > 100 | – | – | – | – | – | – | – | – | – |
| CC(C)C(=O)[O-].CC(C)C(=O)[O-].N.N.N.N.[Co+3].[O-][Cl+3]([O-])([O-])[O-] | > 100 | > 100 | > 100 | > 100 | > 100 | > 100 | > 100 | > 100 | – | > 100 | > 100 | > 100 | > 100 | > 100 | > 100 | > 100 | > 100 | – |
| NCc1c(C(N)=O)ncn1Cc1ccccc1 | – | > 100 | > 100 | > 100 | > 100 | – | > 100 | > 100 | – | – | – | – | – | – | – | – | – | – |
| O=C(Nc1ccc(Br)cc1)C(=O)C(C(=O)c1ccccc1F)C1OC(=O)c2ccccc21 (stereo unspecified) | 80.1 | > 100 | 35.6 | 50.8 | 89.5 | 71.5 | 85 | > 100 | – | – | – | – | – | – | – | – | – | – |
| CCOC(=O)C1=C(Nc2ccc(Br)cc2)OC/C1=N\NC(=O)c1ccccc1O | 97.3 | 17 | > 62 | > 65.1 | > 100 | > 100 | > 100 | > 100 | 18.4 | – | – | – | – | – | – | – | – | – |
| CC1CCCc2c1c1ccc3c(O)cccc3c1oc2=O (stereo unspecified) | > 100 | > 100 | > 100 | 54.1 | > 100 | 70.8 | > 100 | 71.3 | > 100 | – | – | – | – | – | – | – | – | – |
| N#Cc1ccc(Oc2cccc(Oc3ccccc3)c2)cc1C#N | > 100 | – | > 100 | > 100 | > 100 | > 100 | > 100 | > 100 | – | > 100 | – | – | > 100 | – | – | > 100 | > 100 | – |
| CCCCn1c2ccccc2c2ccc3c(c21)C(=O)C=CC3=O | > 100 | > 100 | > 100 | > 100 | > 100 | > 100 | > 100 | > 100 | > 100 | – | – | – | – | – | – | – | – | – |
| O=C(Nc1nc2ccc([N+](=O)[O-])cc2s1)C(=O)C(C(=O)c1ccncc1)C1OC(=O)c2ccccc21 (stereo unspecified) | > 100 | > 100 | > 100 | > 100 | > 100 | > 100 | > 100 | – | > 100 | – | – | – | – | – | – | – | – | – |
| O=C(CNc1ccc2c(=S)c3ccccc3[nH]c2c1)Nc1ccccc1-c1ccccc1NC(=O)CNc1ccc2c(=S)c3ccccc3[nH]c2c1 | 23.9 | > 76.3 | 43.3 | 48.4 | 24.6 | 52.8 | 53.7 | 43.9 | 41.1 | – | – | – | – | – | – | – | – | 37.4 |
| CC(=O)[O-].[Zn].c1ccc(/C(=N\Nc2ccccn2)c2ccccn2)cc1 | 2.49 | 1.88 | 1.26 | 1.81 | 1.79 | 3.13 | 10.9 | 3.34 | – | – | – | – | 0.591 | – | 0.421 | 0.363 | – | – |
| COc1nc2c(nc(N)n2C2OCC(O)C(O)C2O)c(=O)n1C (stereo unspecified) | > 100 | – | > 100 | > 100 | > 100 | > 100 | > 100 | > 100 | > 100 | – | – | – | – | – | – | – | – | – |
| C=C1CCCC2[C@](C)(CC3=C(O)C(=O)C=C(OC)C3=O)[C@@H](C)CC[C@]12C (stereo partly specified) | 69.1 | – | 17.7 | – | 27.2 | > 100 | > 100 | > 100 | – | – | – | – | – | – | – | – | – | – |
| O=c1cccccc1[O-].O=c1cccccc1[O-].O=c1cccccc1[O-].[Ce+3] | > 100 | > 100 | 54.3 | 45.3 | – | – | > 100 | 65.2 | – | 16.7 | 11.4 | – | 17.4 | – | – | 25.7 | – | – |
| Cn1ccnc1CCc1ccc(Cl)c(Cl)c1 | > 100 | > 100 | > 100 | > 100 | > 100 | > 100 | > 100 | > 100 | > 100 | – | – | – | – | – | – | – | – | – |
| CCOC(=O)c1ccc(N2C(=O)Cc3ccccc3C2=O)cc1 | – | > 100 | > 100 | – | > 100 | > 100 | > 100 | > 100 | > 100 | – | – | – | – | – | – | – | – | – |
| Cc1ccccc1C(=O)Oc1ccc(OCc2ccccc2)cc1 | > 100 | > 100 | > 100 | > 100 | > 100 | > 100 | > 100 | > 100 | 68 | – | – | – | – | – | – | – | – | – |
| O=[N+]([O-])c1ccc([N+]2=NC(c3ccccc3)=NN(c3ccccc3)C2)cc1 | > 100 | > 100 | > 100 | 47.9 | > 100 | > 100 | > 100 | > 100 | > 100 | – | – | – | – | – | – | – | – | – |
| CCOC(=O)C(C)(C)Oc1ccc2c(-c3ccc(Cl)cc3)c(-c3ccc(Cl)cc3)c(=O)oc2c1 | > 100 | > 100 | > 100 | > 100 | > 100 | > 100 | > 100 | > 100 | > 100 | – | – | – | – | – | – | – | – | – |
| CC(=O)OC1CCC2C(=CCC3C2(C)C(=O)CC2(C)C(C4(C)OC(C(C)C)=CC4=O)C(O)CC32C)C1(C)C (stereo unspecified) | > 100 | 58.3 | > 10 | > 100 | 92.1 | > 100 | > 100 | – | 72.5 | – | – | – | – | – | – | – | – | – |
| CC(=O)/C=C1\CC(=O)Nc2ccccc2N1 | > 100 | – | > 100 | – | > 100 | > 100 | > 100 | > 100 | > 100 | – | – | – | – | – | – | – | – | – |
| S=c1sc2cscc2s1 | 50.6 | > 100 | 37.7 | 74.5 | 38.6 | 64.5 | > 100 | 40.2 | > 100 | – | – | – | – | – | – | – | – | – |
| CS/C(c1ccccc1)=[N+](\[O-])Cc1ccccc1 | > 100 | – | > 100 | > 100 | > 100 | > 100 | > 100 | > 100 | 43.3 | – | – | – | – | – | – | – | – | – |
| O=C(NC1C2CC3CC(C2)CC1C3)/C(Cl)=C1/Sc2ccccc2NC1=O (stereo unspecified) | > 100 | > 100 | > 100 | > 100 | > 100 | > 100 | > 100 | > 100 | > 100 | – | – | – | – | – | – | – | – | – |
| O=C(O)c1ccccc1N=Nc1ccc2oc(=O)c(C(=O)Nc3ccccc3)cc2c1 | > 100 | > 100 | > 100 | 97.7 | – | – | > 100 | > 100 | – | – | – | – | – | – | – | – | – | – |
| O=C1C(=O)N(c2nccs2)C(=O)C(=O)C1c1nc2ccccc2s1 | > 100 | > 100 | > 100 | > 100 | > 100 | > 100 | > 100 | > 100 | – | – | – | – | – | – | – | – | – | – |
